How the values were obtained:
Format in all cases: physicochemical
[1] = Stability of commercial NR product under hydrolytic conditions in deionized water, followed by NMR
Description: Additionally, to establish the stability of the commercial NR product (Niagen® purchased from ChromaDex) under hydrolytic conditions, it was dissolved in deionized water as described herein and the mixture was analyzed every 3 hours using ^1H- and ^31P-NMR.

[2] = One-stage hydrolysis of NAD^+ with ZrCl4 and calcium L-ascorbate in water at 80° C. (Example 2), concentrations over time; conditions: for Relative Concentration: Example 2, ZrCl4 + calcium L-ascorbate, 80° C.
Description: NMR spectra were recorded with 400 MHz Bruker spectrometer. Reversed phase HPLC column of RP-18 type (Chromolith performance RP18e (100-4.6 mm) UM8 086/001, Merck KGaA) using deionized HPLC-grade solvents in the following composition: 1% acetonitrile, 99% water. Flow rate was 0.1 mL/min, detection performed with UV detector at 260 nm. Mass Spectrometry (MS), 6200 series TOF/6500 series Q-TOF B.05.01 (B5125.1).
In a 250-ml flask, a mixture of NAD^+ (0.33 gr), ZrCl4 (0.58 gr) and 1.80 gr of calcium L-ascorbate in 100 ml of deionized water was heated to 80° C. for 2 days. Over this time period, full conversion of the NAD^+ was observed by HPLC. Decomposition of the desired NR product was also observed under these conditions, but to a lower extent in comparison with the process of Example 1. HR-MS spectrum of the product is MW of 255.10. The extent of the decomposition of the desired NR was determined by comparing the abundance of the desired peak to the abundance of the internal standard.

[3] = Hydrolysis of NAD^+ with phosphate binding agent (calcium L-ascorbate) alone in water at 80° C. (Example 3), concentrations over time; conditions: for Relative Concentration: Example 3, calcium L-ascorbate alone, 80° C.
Description: In a 250-ml flask, a mixture of NAD^+ (0.34 gr) and 1.8 gr of calcium L-ascorbate in 100 ml of deionized water was heated to 80° C. for 4 days. The mixture was analyzed every 3 hours using HPLC and ^31P-NMR.
The rate of the tertiary hydrolysis (decomposition of the NR) is slower. Under these conditions, the concentration of the NR remains essentially stable (˜10% decline) over 24 hours (steady-state). The concentration was determined by comparing the abundance of the desired peak to the abundance of the internal standard MS and ^1H- and ^31P-NMR (intensity of the signal). After this time the concentration of the NR decreased and the product was no longer present.

Relative Concentration ([2]; time 0 hours)	Relative Concentration ([2]; time 0.5 hours)	Relative Concentration ([2]; time 6 hours)	Relative Concentration ([2]; time 16 hours)	Relative Concentration ([2]; time 24 hours)	Relative Concentration ([3]; time 0 hours)	Relative Concentration ([3]; time 0.5 hours)	Relative Concentration ([3]; time 6 hours)	Relative Concentration ([3]; time 16 hours)	Relative Concentration ([3]; time 24 hours)	Relative Concentration ([3]; time 36 hours)	Relative Concentration ([3]; time 48 hours)	Compound	other results
–	–	–	–	–	–	–	–	–	–	–	–	NC(=O)c1ccc[n+]([C@@H]2O[C@H](CO)[C@@H](O)[C@H]2O)c1 [NR (Niagen ®), Nicotinamide riboside]	NR peak at 6.15 ppm in 1H-NMR versus DMF internal standard ([1]; after 24 hours): NR has degraded; Relative Concentration ([1]; time 0.5 hours): 1; Relative Concentration ([1]; time 3 hours): 0.62; Relative Concentration ([1]; time 6 hours): 0.48; Relative Concentration ([1]; time 24 hours): 0.02; Relative Concentration ([1]; time 48 hours): 0
0	0.1	0.19	0.32	0.48	0	0.1	0.16	0.32	0.48	0.41	0.41	NC(=O)c1cccnc1 [Nicotinamide, nicotinamide]	–
0	0.05	0.06	0.02	0	0	0.06	0.11	0.09	0.08	0.01	0	NC(=O)c1ccc[n+]([C@@H]2O[C@H](CO)[C@@H](O)[C@H]2O)c1 [NR, 1-(β-D-Ribofuranosyl)-nicotinamide]	stability of the NR concentrations ([2]; NR-containing aqueous solution, ZrCl4 with phosphate-binding agent added concurrently): about 6 hours; decline of NR concentration ([3]; over 24 hours (steady-state), Example 3): ~10%; time the concentration of the product remains stable (decline of no more than 10%) ([3]; solution from degrading NAD^+ with phosphate-binding agent alone, absence of ZrCl4): at least 24 hours
1	0.66	0.32	0.05	0	1	0.86	0.62	0.55	0.38	0.22	0.2	NC(=O)C1=CN([C@@H]2O[C@H](COP(=O)(O)OP(=O)(O)OC[C@H]3O[C@@H](n4cnc5c(N)ncnc54)[C@H](O)[C@@H]3O)[C@@H](O)[C@H]2O)C=CC1 [NAD^+, β-nicotinamide adenine dinucleotide]	–

— patent US11248018B2, “Process for preparation of nicotinamide riboside (NR) and cosmetic composition comprising (NR and a phosphate-binding agent” (YISSUM RESEARCH DEVELOPMENT COMPANY OF THE HEBREW …, priority 2016, dated 2022)
